Columns and labels:
[1] = test system: EEG SWA / behavioral responsiveness; conditions: during TCI dexmedetomidine sedation; expected, based on Sleigh and colleagues
Excerpt: Participants will undergo three arousals during this phase of the experiment: one during in-phase stimulation, one during anti-phase stimulation, and one during sham stimulation (FIG. 13). The order of CLASS conditions under which a participant will be aroused is the same as in Phase 2, which is balanced across participants. Each arousal will be preceded by at least three consecutive minutes of acoustic stimulation, which will continue during the arousal procedure. The arousal procedure consists of the same ramping thermal stimulation used during pre-sedation QST. The cardinal difference between pre-sedation QST and arousal QST is that one of the investigators will be tasked with pressing the button to end the thermal ramp instead of the sedated participant. The investigator will end the arousal protocol as soon as they observe purposeful behavior in response to the thermal stimulation. The investigator will also be able to terminate the thermal stimulation at their clinical discretion. Vital signs, EEG, and video recording will allow review of the time of arousal during post-hoc analysis. […] Assessors of arousal will be blinded to the acoustic stimulation conditions. Once a participant has been definitively aroused, thermal stimulation will cease. […]

[2] = test system: alpha2 receptors; conditions: cited from earlier work
[3] = infused for several hours to days at 1.5 mcg/kg/hr, critically ill patients; cited from earlier work
[4] = healthy volunteers; conservative estimate; cited from earlier work
[5] = target effect site concentrations of 2.0-4.0 ng/ml, most participants

Cc1cccc([C@H](C)c2cnc[nH]2)c1C [dexmedetomidine]
time for EEG SWA to return to pre-arousal levels [1]: ≤ 10 min
time to return to a state of unresponsiveness after thermal arousal [1]: ≤ 60 s
most common adverse events ([2]; dexmedetomidine infusions): bradycardia, hypotension and hypertension
haemodynamic effect at low plasma concentrations ([2]; plasma concentration <1 ng/ml, agonism at alpha2 receptors in the central nervous system): decrease in peripheral vascular resistance and heart rate
haemodynamic effect at higher plasma concentrations ([2]; plasma concentration >4 ng/ml, agonism at alpha2 receptors on vascular smooth muscle): hypertension and worsening reflex bradycardia
HR [2, 5]: > 75 % from baseline
MAP [2, 5]: near-baseline
level of sedation [2, 5]: moderately sedated
steady-state concentration [3]: 2.5 to 3.0 ng/mL
equilibration constant (t1/2 ke0) [4]: 3 min

— patent US12059565B1, “Methods and systems for modulating unconsciousness or anesthesia in a subject” (priority 2019, dated 2024)
